Measured values taken from US20100311714A1, “1H-IMIDAZO[4,5-c]QUINOLINONE COMPOUNDS” (priority 2009, published 2010).
Where two headings read alike, the source gives them in different places.

How the values were obtained:
PI3K alfa = target: T1, PI3K alfa (Homo sapiens, UniProt P42336); test: PI3K alpha kinase assay (Kinase-Glo luminescence); format: biochemical
T1 construct: His tag (C); made in house; host or cells: baculovirus BV1075; Tn5 (Trichoplusia ni) or TiniPro insect cells
Outline: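 Kinase-Glo luminescence read of ATP remaining after PI3Kα (10 nM) phosphorylates 10 μg/mL bovine liver phosphatidylinositol with 1 μM ATP, pH 7.5 TRIS, 3 mM MgCl2, 0.05% CHAPS; 60 min at room temperature. IC50 from 4-parameter logistic fit over 8 concentrations.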

PI3K delta = target: T2, PI3K delta (Homo sapiens, UniProt O00329); test: PI3K delta kinase assay (Kinase-Glo luminescence); format: biochemical
T2 construct: for the full-length p110-d subunit are generated and fused by overlapping PCR; His tag (C); made in house; host or cells: baculovirus BV1060; Tn5 (Trichoplusia ni) or TiniPro insect cells
T2 sequence (O00329 with tags, fused parts or gaps limits assumed): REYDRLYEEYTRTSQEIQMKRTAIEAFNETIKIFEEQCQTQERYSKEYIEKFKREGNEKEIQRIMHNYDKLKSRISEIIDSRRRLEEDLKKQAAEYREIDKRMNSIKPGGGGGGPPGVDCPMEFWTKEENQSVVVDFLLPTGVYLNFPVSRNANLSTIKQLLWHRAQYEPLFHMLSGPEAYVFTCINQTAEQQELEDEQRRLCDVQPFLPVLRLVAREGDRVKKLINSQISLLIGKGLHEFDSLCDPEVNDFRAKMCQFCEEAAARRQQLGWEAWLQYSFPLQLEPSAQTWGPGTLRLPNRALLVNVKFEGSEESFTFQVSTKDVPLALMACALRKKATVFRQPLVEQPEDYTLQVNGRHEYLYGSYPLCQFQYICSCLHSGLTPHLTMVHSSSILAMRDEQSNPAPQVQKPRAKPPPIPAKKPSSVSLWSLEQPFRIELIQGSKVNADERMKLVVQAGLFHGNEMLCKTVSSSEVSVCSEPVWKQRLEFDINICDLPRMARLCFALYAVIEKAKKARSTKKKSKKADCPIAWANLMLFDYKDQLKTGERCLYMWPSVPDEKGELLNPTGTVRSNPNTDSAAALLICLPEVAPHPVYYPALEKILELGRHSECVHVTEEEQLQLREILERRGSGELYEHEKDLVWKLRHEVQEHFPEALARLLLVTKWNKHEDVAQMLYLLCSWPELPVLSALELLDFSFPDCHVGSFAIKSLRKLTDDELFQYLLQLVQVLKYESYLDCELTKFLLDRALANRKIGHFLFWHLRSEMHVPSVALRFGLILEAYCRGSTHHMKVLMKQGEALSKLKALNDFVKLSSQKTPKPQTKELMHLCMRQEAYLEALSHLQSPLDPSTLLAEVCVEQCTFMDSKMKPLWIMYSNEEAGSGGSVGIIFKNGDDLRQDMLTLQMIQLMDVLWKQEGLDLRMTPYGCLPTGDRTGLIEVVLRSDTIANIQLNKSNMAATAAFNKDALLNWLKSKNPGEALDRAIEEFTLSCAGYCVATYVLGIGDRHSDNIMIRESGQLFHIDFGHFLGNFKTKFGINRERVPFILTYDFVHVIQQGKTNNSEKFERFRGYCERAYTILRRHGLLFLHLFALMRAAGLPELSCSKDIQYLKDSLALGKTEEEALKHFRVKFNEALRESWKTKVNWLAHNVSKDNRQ
Outline: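 Kinase-Glo ATP-depletion luminescence using 10 nM p85(iSH2)-linker-p110δ full-length His-tag construct from insect cells, with 1 μM ATP and 10 μg/mL phosphatidylinositol in 10 mM Tris pH 7.5, 3 mM MgCl2, 50 mM NaCl, 0.05% CHAPS, 1 mM DTT. 60 min room temperature; IC50 from 4-parameter logistic fit over 8 concentrations.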

T1 sequence (P42336 with tags, fused parts or gaps limits assumed): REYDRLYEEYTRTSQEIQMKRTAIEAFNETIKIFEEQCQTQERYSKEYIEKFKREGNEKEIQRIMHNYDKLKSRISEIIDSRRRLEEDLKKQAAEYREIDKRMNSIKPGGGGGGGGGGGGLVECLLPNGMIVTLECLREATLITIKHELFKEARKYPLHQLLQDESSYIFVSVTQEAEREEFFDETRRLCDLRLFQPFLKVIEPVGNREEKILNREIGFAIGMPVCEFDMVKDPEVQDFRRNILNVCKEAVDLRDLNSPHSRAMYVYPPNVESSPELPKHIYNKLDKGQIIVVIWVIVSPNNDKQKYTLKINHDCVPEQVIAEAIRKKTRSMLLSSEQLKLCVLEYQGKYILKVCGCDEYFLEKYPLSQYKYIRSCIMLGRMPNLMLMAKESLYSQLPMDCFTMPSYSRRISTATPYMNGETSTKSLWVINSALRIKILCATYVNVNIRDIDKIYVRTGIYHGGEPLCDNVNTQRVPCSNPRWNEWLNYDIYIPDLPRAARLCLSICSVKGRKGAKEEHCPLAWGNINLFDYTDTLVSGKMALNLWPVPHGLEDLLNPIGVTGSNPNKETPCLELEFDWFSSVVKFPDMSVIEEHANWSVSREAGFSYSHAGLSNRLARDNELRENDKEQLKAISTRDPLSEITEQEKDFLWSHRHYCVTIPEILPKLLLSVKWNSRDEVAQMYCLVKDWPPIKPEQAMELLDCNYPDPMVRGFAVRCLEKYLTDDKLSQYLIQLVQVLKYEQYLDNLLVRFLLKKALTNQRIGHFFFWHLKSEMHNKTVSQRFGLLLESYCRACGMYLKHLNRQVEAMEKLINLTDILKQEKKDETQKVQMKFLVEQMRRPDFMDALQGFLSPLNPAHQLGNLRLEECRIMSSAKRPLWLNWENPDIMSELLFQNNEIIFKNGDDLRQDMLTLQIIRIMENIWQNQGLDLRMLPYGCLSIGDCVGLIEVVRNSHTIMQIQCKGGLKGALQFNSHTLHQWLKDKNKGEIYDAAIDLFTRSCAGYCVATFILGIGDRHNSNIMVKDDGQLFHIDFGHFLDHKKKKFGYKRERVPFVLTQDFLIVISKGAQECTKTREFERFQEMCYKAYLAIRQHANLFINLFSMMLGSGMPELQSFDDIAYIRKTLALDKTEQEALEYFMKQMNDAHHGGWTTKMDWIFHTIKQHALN

Structure (SMILES)	IC50 (PI3K alfa; read-out: EPK_PI3Kalfa/IC50) [nM]	IC50 (PI3K delta; read-out: EPK_PI3Kdelta/IC50) [nM]	IC50 (PI3K alfa; read-out: PI3Kalfa/IC50) [nM]	IC50 (PI3K delta; read-out: PI3Kdelta/IC50) [nM]
CNC(=O)c1cc(-c2ccc3ncc4c(c3c2)n(-c2ccc(F)nc2C)c(=O)n4C)cnc1N [Example 7.14, 2-Amino-5-[1-(6-fluoro-2-methyl-pyridin-3-yl)-3-methyl-2-oxo-2,3-dihydro-1H-imidazo[4,5-c]quinolin-8-yl]-N-methyl-nicotinamide]	11	5	–	–
Cc1nc(N2CC(F)(F)C(F)(F)C2)ccc1-n1c(=O)n(C)c2cnc3ccc(-c4cncc(C(C)(C)O)c4)cc3c21 [Example 35.1, 8-[5-(1-Hydroxy-1-methyl-ethyl)-pyridin-3-yl]-3-methyl-1-[2-methyl-6-(3,3,4,4-tetrafluoro-pyrrolidin-1-yl)-pyridin-3-yl]-1,3-dihydro-imidazo[4,5-c]quinolin-2-one]	7	5	–	–
CCNc1cc(-c2ccc3ncc4c(c3c2)n(-c2ccc(N(C)CC)nc2C)c(=O)n4C)cnc1C [Example 12.2, 8-(5-Ethylamino-6-methyl-pyridin-3-yl)-1-[6-(ethyl-methyl-amino)-2-methyl-pyridin-3-yl]-3-methyl-1,3-dihydro-imidazo[4,5-c]quinolin-2-one]	15	13	–	–
COCCN(C)c1ccc(-n2c(=O)n(C)c3cnc4ccc(-c5cnc(N(C)C)nc5)cc4c32)c(C)n1 [Example 15.5, 8-(2-Dimethylamino-pyrimidin-5-yl)-1-{6-[(2-methoxy-ethyl)-methyl-amino]-2-methyl-pyridin-3-yl}-3-methyl-1,3-dihydro-imidazo[4,5-c]quinolin-2-one]	31	44	–	–
CNc1ccc(-c2ccc3ncc4c(c3c2)n(-c2cnc(F)cc2C)c(=O)n4C)cn1 [Example 16.4, 1-(6-Fluoro-4-methyl-pyridin-3-yl)-3-methyl-8-(6-methylamino-pyridin-3-yl)-1,3-dihydro-imidazo[4,5-c]quinolin-2-one]	47	207	–	–
COCc1ncc(-c2ccc3ncc4c(c3c2)n(-c2ccc(OC)nc2OC)c(=O)n4C)cc1OC [Example 8.12, 1-(2,6-Dimethoxy-pyridin-3-yl)-8-(5-methoxy-6-methoxymethyl-pyridin-3-yl)-3-methyl-1,3-dihydro-imidazo[4,5-c]quinolin-2-one]	41	42	–	–
COc1ncccc1-n1c(=O)n(C)c2cnc3ccc(-c4cnc(N(C)C)nc4)cc3c21 [Example 1.9, 8-(2-Dimethylamino-pyrimidin-5-yl)-1-(2-methoxy-pyridin-3-yl)-3-methyl-1,3-dihydro-imidazo[4,5-c]quinolin-2-one]	–	–	71	85
CNc1ccc(-c2ccc3ncc4c(c3c2)n(-c2cccnc2OC)c(=O)n4C)cn1 [Example 1.4, 1-(2-Methoxy-pyridin-3-yl)-3-methyl-8-(6-methylamino-pyridin-3-yl)-1,3-dihydro-imidazo[4,5-c]quinolin-2-one]	–	–	48	81
CNc1ncc(-c2ccc3ncc4c(c3c2)n(-c2ccc(OCCOC)nc2C)c(=O)n4C)cn1 [Example 13.5, 1-[6-(2-Methoxy-ethoxy)-2-methyl-pyridin-3-yl]-3-methyl-8-(2-methylamino-pyrimidin-5-yl)-1,3-dihydro-imidazo[4,5-c]quinolin-2-one]	43	60	–	–
COc1ccc(-c2ccc3ncc4c(c3c2)n(-c2cccnc2)c(=O)n4C)cn1 [Example 5.4, 8-(6-Methoxy-pyridin-3-yl)-3-methyl-1-pyridin-3-yl-1,3-dihydro-imidazo[4,5-c]quinolin-2-one]	–	–	19	39
CNc1ncc(-c2ccc3ncc4c(c3c2)n(-c2cccnc2C)c(=O)n4C)cn1 [Example 2.2, 3-Methyl-8-(2-methylamino-pyrimidin-5-yl)-1-(2-methyl-pyridin-3-yl)-1,3-dihydro-imidazo[4,5-c]quinolin-2-one]	–	–	26	22
COc1ccc(-c2ccc3ncc4c(c3c2)n(-c2ncccc2C)c(=O)n4C)cn1 [Example 3.13, 8-(6-Methoxy-pyridin-3-yl)-3-methyl-1-(3-methyl-pyridin-2-yl)-1,3-dihydro-imidazo[4,5-c]quinolin-2-one]	–	–	90	249
COc1ncccc1-n1c(=O)n(C)c2cnc3ccc(-c4cnc(N)c(C(F)(F)F)c4)cc3c21 [Example 1.3, 8-(6-Amino-5-trifluoromethyl-pyridin-3-yl)-1-(2-methoxy-pyridin-3-yl)-3-methyl-1,3-dihydro-imidazo[4,5-c]quinolin-2-one]	–	–	10	8
CCNc1cc(-c2ccc3ncc4c(c3c2)n(-c2ccc(OC)nc2C)c(=O)n4C)cnc1C [Example 11.7, 8-(5-Ethylamino-6-methyl-pyridin-3-yl)-1-(6-methoxy-2-methyl-pyridin-3-yl)-3-methyl-1,3-dihydro-imidazo[4,5-c]quinolin-2-one]	< 3	3	–	–
CCOc1ccc(-c2ccc3ncc4c(c3c2)n(-c2ccc(N(C)C)nc2C)c(=O)n4C)cn1 [Example 19.3, 1-(6-Dimethylamino-2-methyl-pyridin-3-yl)-8-(6-ethoxy-pyridin-3-yl)-3-methyl-1,3-dihydro-imidazo[4,5-c]quinolin-2-one]	55	395	–	–
COc1ncccc1-n1c(=O)n(C)c2cnc3ccc(-c4cnc5c(ccn5C)c4)cc3c21 [Example 1.7, 1-(2-Methoxy-pyridin-3-yl)-3-methyl-8-(1-methyl-1H-pyrrolo[2,3-b]pyridin-5-yl)-1,3-dihydro-imidazo[4,5-c]quinolin-2-one]	–	–	134	101
CCNc1cc(-c2ccc3ncc4c(c3c2)n(-c2ccc(OC)nc2Cl)c(=O)n4C)cnc1C [Example 18.1, 1-(2-Chloro-6-methoxy-pyridin-3-yl)-8-(5-ethylamino-6-methyl-pyridin-3-yl)-3-methyl-1,3-dihydro-imidazo[4,5-c]quinolin-2-one]	40	22	–	–
Cc1cccnc1-n1c(=O)n(C)c2cnc3ccc(-c4cnc5ccccc5c4)cc3c21 [Example 3.8, 3-Methyl-1-(3-methyl-pyridin-2-yl)-8-quinolin-3-yl-1,3-dihydro-imidazo[4,5-c]quinolin-2-one]	–	–	70	264
COCCN(C)c1ccc(-n2c(=O)n(C)c3cnc4ccc(-c5cnc6c(ccn6C)c5)cc4c32)c(C)n1 [Example 15.7, 1-{6-[(2-Methoxy-ethyl)-methyl-amino]-2-methyl-pyridin-3-yl}-3-methyl-8-(1-methyl-1H-pyrrolo[2,3-b]pyridin-5-yl)-1,3-dihydro-imidazo[4,5-c]quinolin-2-one]	18	21	–	–
COCCOc1ccc(-n2c(=O)n(C)c3cnc4ccc(-c5cncc(N6CCC6)c5)cc4c32)c(C)n1 [Example 22.2, 8-(5-Azetidin-1-yl-pyridin-3-yl)-1-[6-(2-methoxy-ethoxy)-2-methyl-pyridin-3-yl]-3-methyl-1,3-dihydro-imidazo[4,5-c]quinolin-2-one]	171	101	–	–
CNc1ccc(-c2ccc3ncc4c(c3c2)n(-c2ccc(NC(=O)COC)nc2C)c(=O)n4C)cn1 [Example 20.4, 2-Methoxy-N-{6-methyl-5-[3-methyl-8-(6-methylamino-pyridin-3-yl)-2-oxo-2,3-dihydro-imidazo[4,5-c]quinolin-1-yl]-pyridin-2-yl}-acetamide]	39	78	–	–
COCCN(C)c1ccc(-n2c(=O)n(C)c3cnc4ccc(-c5cncc(N)c5)cc4c32)c(C)n1 [Example 15.8, 8-(5-Amino-pyridin-3-yl)-1-{6-[(2-methoxy-ethyl)-methyl-amino]-2-methyl-pyridin-3-yl}-3-methyl-1,3-dihydro-imidazo[4,5-c]quinolin-2-one]	49	45	–	–
CCOc1ccc(-c2ccc3ncc4c(c3c2)n(-c2ccc(N(C)CCOC)nc2C)c(=O)n4C)cn1 [Example 15.3, 8-(6-Ethoxy-pyridin-3-yl)-1-{6-[(2-methoxy-ethyl)-methyl-amino]-2-methyl-pyridin-3-yl}-3-methyl-1,3-dihydro-imidazo[4,5-c]quinolin-2-one]	103	117	–	–
COCCOc1cc(-c2ccc3ncc4c(c3c2)n(-c2ccc(OC)nc2OC)c(=O)n4C)cnc1C [Example 8.9, 1-(2,6-Dimethoxy-pyridin-3-yl)-8-[5-(2-methoxy-ethoxy)-6-methyl-pyridin-3-yl]-3-methyl-1,3-dihydro-imidazo[4,5-c]quinolin-2-one]	11	14	–	–
CCOc1ccc(-c2ccc3ncc4c(c3c2)n(-c2cncc(C)c2)c(=O)n4C)cn1 [Example 17.1, 8-(6-Ethoxy-pyridin-3-yl)-3-methyl-1-(5-methyl-pyridin-3-yl)-1,3-dihydro-imidazo[4,5-c]quinolin-2-one]	78	275	–	–
COc1ncccc1-n1c(=O)n(C)c2cnc3ccc(-c4ccc(F)nc4)cc3c21 [Example 1.8, 8-(6-Fluoro-pyridin-3-yl)-1-(2-methoxy-pyridin-3-yl)-3-methyl-1,3-dihydro-imidazo[4,5-c]quinolin-2-one]	–	–	58	364
COc1ccc(-n2c(=O)n(C)c3cnc4ccc(-c5cnc(N)c(C(F)(F)F)c5)cc4c32)c(OC)n1 [Example 8.1, 8-(6-Amino-5-trifluoromethyl-pyridin-3-yl)-1-(2,6-dimethoxy-pyridin-3-yl)-3-methyl-1,3-dihydro-imidazo[4,5-c]quinolin-2-one]	–	–	11	12
